Entries after “also recorded” stand apart in the source; their conditions may differ. * marks the point of attachment. C16 alkyl = CCCCCCCCCCCCCCCC*
Legend:
Settings in all cases: 10 days post-augmentation; compared between groups
[1] = system: Rat Bladder Augmentation Model; assay: Blood vessel quantification in areas of bladder tissue regeneration; type: in vivo
Protocol: (§1) Athymic female rats (weighing ˜200 g and 8-10 weeks old; National Cancer Institute Animal Production Program) underwent bladder augmentation (ref. 15; herein incorporated by reference in its entirety). Athymic rats were chosen for this study to solely examine the innate immune response to inflammation without influence of the adaptive immune response. In order to induce anesthesia, animals were given intraperitoneal injections of 60 mg/kg ketamine and 5 mg/kg xylazine. A second injection consisting of Buprenex (1 mg/kg) was administered subcutaneously to alleviate any pain/discomfort during and following surgical procedures. An approximate 1.5 cm midline vertical skin incision was created to expose the abdominal fascia and muscles. This was immediately followed by the separation of the wall leading to the identification of the bladder. An approximate 70% supratrigonal cystectomy was performed from anterior to posterior creating a clamshell. Immediately prior to bladder augmentation procedures, samples of the pro-inflammatory biological scaffold, small intestinal submucosa (SIS (0.5×0.5 cm); Cook Biotech.) (refs. 12,13,16; herein incorporated by reference in their entireties) were thoroughly dip-coated separately in one of the previously described AIF-PAs following gelation procedures. The sections of SIS were dip-coated for approximately 20 seconds and allowed to adhere to the SIS for an additional 30 seconds. Dip-coating procedures were performed at room temperature in air. The cystectomized bladder defect was then augmented with: 1) SIS (non-AIF-PA coated SIS; n=8 animals over both time-points); 2) AIF-PA1 coated SIS (denoted as SIS/AIF-PA1; n=11 animals over both time-points); 3) AIF-PA2 coated SIS (denoted as SIS/AIF-PA2; n=8 animals over both time-points); 4) AIF-PA3 coated SIS (denoted as SIS/AIF-PA3; n=3); 5) AIF-PA4 coated SIS (denoted as SIS/AIF-PA4; n=3 animals); 6) AIF-PA5 coated SIS (denoted as SIS/AIF-PA5; n=3 animals); and 7) AIFC-PA6 coated SIS (denoted as SIS/AIFC-PA6; n=9 animals over both time-points). The bladder was finally covered with omentum after being closed in a watertight manner utilizing 7-0 polyglactin suture. The abdominal wall was then closed in a single layer with 5-0 ethibond running suture and the skin re-approximated with 9 mm autoclips. Each group was sacrificed at 10 day and 5 week time-points.
Trichrome sample images were opened with Adobe Photoshop CS3 and were initially characterized utilizing a Nikon Eclipse 50i Microscope in addition to Spot Advanced Imaging Software. Vessel numbers were quantified utilizing the pen tool based upon n=10 images per graft in regenerated areas. Individual vessels were selected manually and subsequently quantified using the image histogram tool to acquire pixel density for each vessel. Data is represented as mean number of vessels/mm^2 (means±SE).

[2] = system: Rat Bladder Augmentation Model; assay: Bladder tissue collagen quantification (Masson's Trichrome); type: in vivo
Protocol: as §1
Explanted bladder specimens encompassing the entire thickness of the bladder were isolated immediately following euthanasia and processed (ref. 15; herein incorporated by reference in its entirety). Specimens were fixed in a 10% buffered formalin phosphate (Fisher Scientific, Inc.) solution followed by a series of graded ethanol exchanges then embedded in paraffin (Fisher Scientific). Embedded tissues were sectioned onto glass slides at a thickness of 10 μm using a RM2125 RT Microtome (Leica) onto glass slides and subjected to staining with Masson's Trichrome (Sigma-Aldrich Corp.) reagent. The paraffin was removed from tissue containing slides using a hot plate at 62° C. for 6 minutes and was followed by treatment with xylenes, graded ethanol washes and DI water. Slides were placed in Bouin's solution (Sigma-Aldrich Corp.) for approximately 15 min then rinsed under running tap water. The samples were then stained 5 minutes with Hematoxylin and rinsed with running water and subsequently stained with Scarlet-Acid Fuchsin (Sigma-Aldrich Corp.). Slides were rinsed again with DI water and placed into a mixture of PTA/PMA, followed by Aniline Blue solution and a 1% acetic acid wash. Finally, slides were placed in 95-100% ethanol and rinsed in xylene. Following air drying, a coverslip was placed over the specimen sample and secured with Permaslip (Alban Scientific Inc).
Bladder tissue specimens were evaluated for collagen content (refs. 13,15,17; herein incorporated by reference in their entireties). […]

[3] = system: CD68+ macrophages; assay: Immunofluorescence quantification of CD68+ macrophages in regenerated bladder tissue; type: in vivo, rat
Protocol: as §1
(§2) Tissue sections comprised of SIS alone, SIS/AIF-PA1, SIS/AIF-PA2, and SIS/AIF-PA6 augmentations were subjected to immunofluorescence staining by initially undergoing antigen retrieval which consisted of 15 min of boiling in citrate buffer (0.01M citrate solution, pH 6.0 with 0.05% Tween-20) followed by cooling at room temperature for approximately 20 minutes. The antibody staining process consisted of a blocking step for 15 min in bovine serum albumin (BSA, 5 mg/ml) followed by a 40 minutes incubation at room temperature with the primary antibody. After washing with DPBS, slides were incubated for 30 min with a secondary antibody and eventually rinsed with DPBS and air dried. Slides were mounted with Vectashield (Vector Laboratories). Primary antibodies were directed against epitopes for the inflammatory markers CD68 (macrophage) (refs. 18,19; herein incorporated by reference in their entireties) MPO (neutrophil) (ref. 20; herein incorporated by reference in its entirety) or the inflammation-related proteins IL1β, TNFα, IL-10, IL-13, CD206 (M2 macrophage) (refs. 21-25; herein incorporated by reference in their entireties) and CD86 (M1 macrophage) (ref. 26; herein incorporated by reference in its entirety). Antibodies directed against the ECM in regenerating bladder tissue (including COL4A3 and fibronectin) were also utilized. Alexa Red 555 or FITC conjugated secondary antibodies (Molecular Probes) were utilized for visualization (ref. 15; herein incorporated by reference in its entirety). […]

[4] = system: MPO+ neutrophils; assay: Immunofluorescence quantification of MPO+ neutrophils in regenerated bladder tissue; type: in vivo, rat
Protocol: as §1, §2

Substance: C16-VVVAAAEEEDPVKG (SEQ ID NO:5) ({C16 alkyl}-VVVAAAEEEDPVKG-NH2) [SIS/AIF-PA5, anti-inflammatory peptide amphiphile, tested dip-coated on small intestinal submucosa (SIS) scaffold]
- blood vessel formation, in words [1]: least level of blood vessel formation; also recorded: not significantly different from those of control groups
- collagen levels, in words [2]: not significantly different from those of control groups

Substance: C16-VVVAAAEEEKVLDGQDP (SEQ ID NO:4) ({C16 alkyl}-VVVAAAEEEKVLDGQDP-NH2) [SIS/AIF-PA4, anti-inflammatory peptide amphiphile, tested dip-coated on small intestinal submucosa (SIS) scaffold]
- blood vessel formation, in words [1]: greater numbers of vessels/mm2
- CD68+ macrophage levels, in words [3]: significantly lower
- collagen levels, in words [2]: lower mean collagen levels
- MPO+ neutrophil levels, in words [4]: significantly lower

Substance: C16-VVVAAAEEEKVLDPVKG (SEQ ID NO:3) ({C16 alkyl}-VVVAAAEEEKVLDPVKG-NH2) [SIS/AIF-PA3, anti-inflammatory peptide amphiphile, tested dip-coated on small intestinal submucosa (SIS) scaffold]
- blood vessel formation, in words [1]: greater numbers of vessels/mm2
- CD68+ macrophage levels, in words [3]: comparable macrophage levels to SIS/AIF-PA1; also recorded: significantly lower
- collagen levels, in words [2]: lower mean collagen levels
